Tested on: MIN-6 cells
Assay: Cytotoxicity: cell viability of MIN-6 cells by AOPI staining and cell counter
Settings: 24 hours

SMILES	cell viability (40 μM)	cytotoxicity (cell viability) (up to 20 μM)	cytotoxicity (cell viability) (0.5 mM to 40 mM of each factor)
CN(CC(=O)N(Cc1ccc(C2CCCCC2)cc1)c1ccc(C(=O)O)c(O)c1)S(=O)(=O)c1c(F)c(F)c(F)c(F)c1F [BP-1-102]	about 59%	no cytotoxicity was shown	
NC(=O)c1cccnc1 [nicotinamide]			did not show cytotoxicity
N[C@H]1C(O)O[C@H](CO)[C@@H](O)[C@@H]1O (stereo partly shown) [glucosamine]			did not show cytotoxicity

— US12527806B2, “Composition for preventing or treating diabetes mellitus” (SEOUL NATIONAL UNIVERSITY R&DB FOUNDATION, priority 2020, dated 2026)
